In ChEMBL document CHEMBL3526096, “Species differences in biliary clearance and possible relevance of hepatic uptake and efflux transporters involvement” (Drug Metab Dispos, 2013):

Columns and labels:
[1] = Drug excretion in iv dosed rat assessed as compound excreted into bile; type: ADME, organism-based; conditions: read-out: Drug excretion
[2] = test system: Rattus norvegicus; assay: Unbound biliary clearance in iv dosed rat; type: ADME, organism-based, Bile; conditions: in vivo
[3] = test system: Homo sapiens; assay: Unbound biliary clearance in human at 200 mg, po after 24 hrs by T-tube method; type: ADME, organism-based, Bile; conditions: in vivo
[4] = test system: Rattus norvegicus; assay: Total biliary clearance in iv dosed rat; type: ADME, organism-based, Bile; conditions: in vivo
[5] = test system: Homo sapiens; assay: Total biliary clearance in human at 200 mg, po after 24 hrs by T-tube method; type: ADME, organism-based, Bile; conditions: in vivo
[6] = Drug excretion in human assessed as compound excreted into bile at 200 mg, po after 24 hrs by T-tube method; type: ADME, organism-based; conditions: read-out: Drug excretion
[7] = test system: Canis familiaris; assay: Unbound biliary clearance in iv dosed dog; type: ADME, organism-based, Canis lupus familiaris, Bile; conditions: in vivo
[8] = test system: Rattus norvegicus; assay: Unbound biliary clearance in Wistar rat at 10 mg/kg, iv; type: ADME, organism-based, Bile; design: dose 10 mg/kg, route intravenous; conditions: in vivo
[9] = test system: Rattus norvegicus; assay: Total biliary clearance in Wistar rat at 10 mg/kg, iv; type: ADME, organism-based, Bile; design: dose 10 mg/kg, route intravenous; conditions: in vivo
[10] = test system: Canis familiaris; assay: Total biliary clearance in iv dosed dog; type: ADME, organism-based, Canis lupus familiaris, Bile; conditions: in vivo
[11] = Drug excretion in iv dosed human assessed as compound excreted into bile after 20 hrs; type: ADME, organism-based; conditions: read-out: Drug excretion
[12] = Drug excretion in Wistar rat assessed as compound excreted into bile at 10 mg/kg, iv; type: ADME, organism-based; design: dose 10 mg/kg, route intravenous; conditions: read-out: Drug excretion
[13] = Drug excretion in iv dosed dog assessed as compound excreted into bile; type: ADME, organism-based, Canis lupus familiaris; conditions: read-out: Drug excretion
[14] = test system: Homo sapiens; assay: Total biliary clearance in iv dosed human after 20 hrs by duodenal aspiration method; type: ADME, organism-based, Bile; conditions: in vivo
[15] = test system: Homo sapiens; assay: Unbound biliary clearance in iv dosed human after 20 hrs; type: ADME, organism-based, Bile; conditions: in vivo
[16] = test system: Homo sapiens; assay: Unbound biliary clearance in iv dosed human after 24 hrs by T-tube method; type: ADME, organism-based, Bile; conditions: in vivo
[17] = Drug excretion in iv dosed human assessed as compound excreted into bile after 24 hrs by T-tube method; type: ADME, organism-based; conditions: read-out: Drug excretion
[18] = test system: Homo sapiens; assay: Total biliary clearance in iv dosed human after 24 hrs by T-tube method; type: ADME, organism-based, Bile; conditions: in vivo
[19] = test system: Rattus norvegicus; assay: Unbound biliary clearance in Sprague-Dawley rat at 5 mg/kg, iv; type: ADME, organism-based, Bile; design: dose 5 mg/kg, route intravenous; conditions: in vivo
[20] = Drug excretion in Sprague-Dawley rat assessed as compound excreted into bile at 5 mg/kg, iv; type: ADME, organism-based; design: dose 5 mg/kg, route intravenous; conditions: read-out: Drug excretion
[21] = test system: Rattus norvegicus; assay: Total biliary clearance in Sprague-Dawley rat at 5 mg/kg, iv; type: ADME, organism-based, Bile; design: dose 5 mg/kg, route intravenous; conditions: in vivo
[22] = Drug excretion in human assessed as compound excreted into bile at 20 mg, iv after 24 hrs by T-tube method; type: ADME, organism-based; conditions: read-out: Drug excretion
[23] = test system: Rattus norvegicus; assay: Unbound biliary clearance in Sprague-Dawley rat at 8 uCi, iv; type: ADME, organism-based, Bile; conditions: in vivo
[24] = test system: Homo sapiens; assay: Unbound biliary clearance in human at 20 mg, iv after 24 hrs by T-tube method; type: ADME, organism-based, Bile; conditions: in vivo
[25] = test system: Rattus norvegicus; assay: Total biliary clearance in Sprague-Dawley rat at 8 uCi, iv; type: ADME, organism-based, Bile; conditions: in vivo
[26] = test system: Homo sapiens; assay: Total biliary clearance in human at 20 mg, iv after 24 hrs by T-tube method; type: ADME, organism-based, Bile; conditions: in vivo
[27] = Drug excretion in human assessed as compound excreted into bile; type: ADME; conditions: read-out: Drug excretion
[28] = test system: Rattus norvegicus; assay: Unbound biliary clearance in Sprague-Dawley rat at 20 mg/kg, iv; type: ADME, organism-based, Bile; design: dose 20 mg/kg, route intravenous; conditions: in vivo
[29] = Drug excretion in Sprague-Dawley rat assessed as compound excreted into bile at 20 mg/kg, iv; type: ADME, organism-based; design: dose 20 mg/kg, route intravenous; conditions: read-out: Drug excretion
[30] = test system: Canis familiaris; assay: Unbound biliary clearance in beagle dog at 20 mg/kg, iv; type: ADME, organism-based, Canis lupus familiaris, Bile; design: dose 20 mg/kg, route intravenous; conditions: in vivo
[31] = test system: Rattus norvegicus; assay: Total biliary clearance in Sprague-Dawley rat at 20 mg/kg, iv; type: ADME, organism-based, Bile; design: dose 20 mg/kg, route intravenous; conditions: in vivo
[32] = test system: Homo sapiens; assay: Total biliary clearance in human at 1 gm, iv after 24 hrs by T-tube method; type: ADME, organism-based, Bile; conditions: in vivo
[33] = Drug excretion in beagle dog assessed as compound excreted into bile at 20 mg/kg, iv; type: ADME, organism-based, Canis lupus familiaris; design: dose 20 mg/kg, route intravenous; conditions: read-out: Drug excretion
[34] = test system: Canis familiaris; assay: Total biliary clearance in beagle dog at 20 mg/kg, iv; type: ADME, organism-based, Canis lupus familiaris, Bile; design: dose 20 mg/kg, route intravenous; conditions: in vivo
[35] = test system: Homo sapiens; assay: Unbound biliary clearance in human at 1 gm, iv after 24 hrs by T-tube method; type: ADME, organism-based, Bile; conditions: in vivo
[36] = Drug excretion in human assessed as compound excreted into bile at 1 gm, iv after 24 hrs by T-tube method; type: ADME, organism-based; conditions: read-out: Drug excretion
[37] = Drug excretion in po dosed human assessed as compound excreted into bile after 24 hrs by T-tube method; type: ADME, organism-based; conditions: read-out: Drug excretion
[38] = test system: Rattus norvegicus; assay: Total biliary clearance in Sprague-Dawley rat at 300 mg/kg, iv; type: ADME, organism-based, Bile; design: dose 300 mg/kg, route intravenous; conditions: in vivo
[39] = test system: Rattus norvegicus; assay: Unbound biliary clearance in Sprague-Dawley rat at 300 mg/kg, iv; type: ADME, organism-based, Bile; design: dose 300 mg/kg, route intravenous; conditions: in vivo
[40] = Drug excretion in Sprague-Dawley rat assessed as compound excreted into bile at 300 mg/kg, iv; type: ADME, organism-based; design: dose 300 mg/kg, route intravenous; conditions: read-out: Drug excretion
[41] = test system: Homo sapiens; assay: Total biliary clearance in human at 1 gm, iv after 8 hrs by T-tube method; type: ADME, organism-based, Bile; conditions: in vivo
[42] = Drug excretion in human assessed as compound excreted into bile at 1 gm, iv after 8 hrs by T-tube method; type: ADME, organism-based; conditions: read-out: Drug excretion
[43] = test system: Homo sapiens; assay: Unbound biliary clearance in human at 1 gm, iv after 8 hrs by T-tube method; type: ADME, organism-based, Bile; conditions: in vivo
[44] = test system: Homo sapiens; assay: Unbound biliary clearance in iv dosed human after 6 to 8 hrs by duodenal perfusion method; type: ADME, organism-based, Bile; conditions: in vivo
[45] = test system: Homo sapiens; assay: Total biliary clearance in iv dosed human after 6 to 8 hrs by duodenal perfusion method; type: ADME, organism-based, Bile; conditions: in vivo
[46] = Drug excretion in iv dosed human assessed as compound excreted into bile after 6 to 8 hrs by duodenal perfusion method; type: ADME, organism-based; conditions: read-out: Drug excretion

C=CC1=C(C(=O)O)N2C(=O)[C@@H](NC(=O)/C(=N\OCC(=O)O)c3csc(N)n3)[C@H]2SC1 [CEFIXIME]
dose excreted [1]: 41%
CL free [2]: 7.143 mL/min/kg
CL free [3]: 0.452 mL/min/kg
CL [4]: 1 mL/min/kg
CL [5]: 0.14 mL/min/kg
dose excreted at 24 h [6]: 11%

CC[C@H]1OC(=O)[C@H](C)[C@@H](O[C@H]2C[C@@](C)(OC)[C@@H](O)[C@H](C)O2)[C@H](C)[C@@H](O[C@@H]2O[C@H](C)C[C@H](N(C)C)[C@H]2O)[C@](C)(O)C[C@@H](C)C(=O)[C@H](C)[C@@H](O)[C@]1(C)O [ERYTHROMYCIN]
CL free [7]: 4.483 mL/min/kg
CL free [8]: 22.38 mL/min/kg
CL [9]: 17.4 mL/min/kg
CL [10]: 2.376 mL/min/kg
dose excreted at 20 h [11]: 13%
dose excreted [12]: 30%
dose excreted [13]: 5%
CL [14]: 1.147 mL/min/kg
CL free [15]: 7.169 mL/min/kg

CC[C@H](C)C(=O)O[C@H]1C[C@H](O)C=C2C=C[C@H](C)[C@H](CC[C@@H](O)C[C@@H](O)CC(=O)O)[C@H]21 [PRAVASTATIN]
CL free [16]: 6.21 mL/min/kg
dose excreted [1]: 40%
dose excreted at 24 h [17]: 23%
CL free [2]: 78.57 mL/min/kg
CL [18]: 3.105 mL/min/kg
CL [4]: 27.5 mL/min/kg

COc1cccc2c1C(=O)c1c(O)c3c(c(O)c1C2=O)C[C@@](O)(C(=O)CO)C[C@@H]3O[C@H]1C[C@H](N)[C@H](O)[C@H](C)O1 [DOXORUBICIN]
CL free [16]: 7.268 mL/min/kg
dose excreted at 24 h [17]: 14%
CL free [7]: 5.059 mL/min/kg
CL [10]: 1.72 mL/min/kg
CL free [19]: 10.82 mL/min/kg
CL [18]: 2.035 mL/min/kg
dose excreted [20]: 17%
dose excreted [13]: 10%
CL [21]: 3.68 mL/min/kg

CCCCC(=O)N(Cc1ccc(-c2ccccc2-c2nnn[nH]2)cc1)[C@H](C(=O)O)C(C)C
dose excreted at 24 h [22]: 88%
CL free [23]: 378.8 mL/min/kg
CL free [24]: 10.775 mL/min/kg
CL [25]: 12.5 mL/min/kg
CL [26]: 0.431 mL/min/kg

N=C(N)N1CCC[C@@H](CNC(=O)C[C@H](NS(=O)(=O)c2ccc3ccccc3c2)C(=O)N(CC(=O)O)C2CC2)C1 [NAPSAGATRAN ANHYDROUS]
dose excreted [1]: 61%
dose excreted [27]: 60%
dose excreted [13]: 97%

Cc1cc(O)c(C(=O)N[C@@H](C(=O)N[C@@H]2C(=O)N3C(C(=O)O)=C(CSc4nnnn4C)CS[C@H]23)c2ccc(O)cc2)cn1 [CEFPIRAMIDE]
CL free [28]: 9.667 mL/min/kg
dose excreted [29]: 58%
CL free [30]: 1.399 mL/min/kg
CL [31]: 5.22 mL/min/kg
CL [32]: 2.4 mL/h/kg
dose excreted [33]: 19%
CL [34]: 0.979 mL/min/kg
CL free [35]: 1 mL/min/kg
dose excreted at 24 h [36]: 28%

CCC(=O)C(CC(C)N(C)C)(c1ccccc1)c1ccccc1 (centres undefined) [METHADONE]
dose excreted [1]: 9%
dose excreted at 24 h [37]: 0.06%

CO[C@@]1(NC(=O)C(C(=O)O)c2ccc(O)cc2)C(=O)N2C(C(=O)O)=C(CSc3nnnn3C)CO[C@@H]21 (some centres undefined) [MOXALACTAM]
CL [38]: 2.19 mL/min/kg
CL free [39]: 4.294 mL/min/kg
dose excreted [40]: 25%
CL [41]: 4.3 mL/day/kg
dose excreted at 8 h [42]: 0.5%
CL free [43]: 12 mL/day/kg

CO/N=C(\C(=O)N[C@@H]1C(=O)N2C(C(=O)O)=C(CSc3nc(=O)c(=O)[nH]n3C)CS[C@H]12)c1csc(N)n1 [CEFTRIAXONE]
CL free [44]: 0.933 mL/min/kg
CL free [28]: 12.73 mL/min/kg
CL [45]: 4.2 mL/h/kg
dose excreted [29]: 62%
CL free [30]: 2.907 mL/min/kg
CL [31]: 0.82 mL/min/kg
dose excreted [33]: 63%
dose excreted [46]: 30%
CL [34]: 2.5 mL/min/kg
